# Laboratory results from US4588526A, “Bronchodilatory azepino(1,2-A)pyrimidine derivatives and acid addition salts thereof and bronchodilating pharmaceutical compositions containing same” (Chinoin Gyogyszer es Vegyeszeti Termekek Gyara Rt, priority 1982, dated 1986).
# Experiments:
# [1] = tested on: spasm induced by 5-hydroxy-tryptamine; experiment: Konzett test, inhibition of spasm induced by 5-hydroxy-tryptamine; assay type: in vivo, guinea-pigs; conditions: guinea-pig Konzett test; for ED50: Cavia porcellus, read-out: ID50 spasm inhibition induced by 5-hydroxy-tryptamine
# Experimental: (§1) The activity was determined on the basis of inhibition of spasm induced by three endogenic spasmogenic agents (5-hydroxy-tryptamine histamine, acetyloholine).
# [2] = tested on: spasm induced by histamine; experiment: Konzett test, inhibition of spasm induced by histamine; assay type: in vivo, guinea-pigs; conditions: guinea-pig Konzett test; for ED50: Cavia porcellus, read-out: ID50 spasm inhibition induced by histamine
# Experimental: as §1
# [3] = tested on: spasm induced by acetylcholine; experiment: Konzett test, inhibition of spasm induced by acetylcholine; assay type: in vivo, guinea-pigs; conditions: guinea-pig Konzett test; for ED50: Cavia porcellus, read-out: ID50 spasm inhibition induced by acetylcholine
# Experimental: as §1
# [4] = Drugs of the Future 1981, 6, 362; cited from earlier work
# [5] = tested on: human bronchus; experiment: Human bronchus test, inhibition of Carbacol-induced contraction; conditions: contraction by 1 μmole Carbacol, 37 C; for IC50: amount for 50% inhibition
# From the text: As a further Example the activity of the compound of the formula IX is illustrated by human bronchus test. Human bronchus obtained surgically was dipped into an oxygenized physiological solution of 37 C. The contraction is induced by 1 μmole Carbacol.
# [6] = tested on: spasm induced by three endogenic spasmogenic agents; experiment: Konzett test, duration of activity and comparison with known compounds; assay type: in vivo, guinea-pigs; conditions: guinea-pig Konzett test; marks all three ID50 values
# Experimental: The activity of the compounds of the invention was examined by Konzett test (Konzett H. and, Rossler R., Arch. Exp. Path. Pharm., 1940, 195 71) using guinea-pigs. The activity was determined on the basis of inhibition of spasm induced by three endogenic spasmogenic agents (5-hydroxy-tryptamine histamine, acetyloholine).
molecule,measurement,setting,value
O=c1c2c(nc3n1CCCCC3)CCCC2 [drawing 10],ID50 spasm inhibition induced by 5-hydroxy-tryptamine,[1],15.7 µmol/kg
same,ID50 spasm inhibition induced by histamine,[2],5.4 µmol/kg
same,ID50 spasm inhibition induced by acetylcholine,[3],6.3 µmol/kg
"O=c1c2ccccc2nc2n1CCCCC2 [6,7,8,9,10,12-hexahydroazepino[2,1-b]quinazoline-12-one]",bronchodilatory activity,[4],displays bronchodilatory activity
O=c1c2c(nc3n1CCCCC3)CCCC2 [IX],IC50,[5]; Homo sapiens,5.4 µM
same,inhibition at 100 µM,"[5]; Homo sapiens, dosage 10^-4 (10^-4.0) mole/1, read-out: spasm reduction",184%
same,inhibition at 31.62 µM,"[5]; Homo sapiens, dosage 10^-4.5 mole/1, read-out: spasm reduction",113%
same,inhibition at 10 µM,"[5]; Homo sapiens, dosage 10^-5.0 mole/1, read-out: spasm reduction",48%
same,inhibition at 3.162 µM,"[5]; Homo sapiens, dosage 10^-5.5 mole/1, read-out: spasm reduction",23%
same,inhibition at 1 µM,"[5]; Homo sapiens, dosage 10^-6.0 mole/1, read-out: spasm reduction",3%
O=c1c2c(nc3n1CCCCC3)CCC2,ED50,[1],13.8 µmol/kg
same,ED50,[2],6.5 µmol/kg
same,ED50,[3],3.7 µmol/kg
O=c1c2c(nc3n1CCCCC3)CCCC2 [drawing 9],ID50 spasm inhibition induced by 5-hydroxy-tryptamine,[1],3.0 µmol/kg
same,ED50,[2],3.1 µmol/kg
same,ED50,[3],7.8 µmol/kg
same,duration of activity (footnote x),[6],long-lasting activity
"O=c1c2ccccc2nc2n1CCCCC2 [drawing 12, reference compound]",ED50,[1],36 µmol/kg
same,ED50,[2],6.2 µmol/kg
same,ED50,[3],26.3 µmol/kg
theophilline anisate [reference compound],ID50 spasm inhibition induced by 5-hydroxy-tryptamine,[1],14.0 µmol/kg
same,ID50 spasm inhibition induced by histamine,[2],14.0 µmol/kg
same,ID50 spasm inhibition induced by acetylcholine,[3],22.0 µmol/kg
same,IC50,[5],150 µM
same,spasm reduction,"[5]; dosage 10^-3.75 mole/1, 177.8 µM",64%
same,spasm reduction,"[5]; dosage 10^-4 (10^-4.0) mole/1, 100 µM",28%
same,spasm reduction,"[5]; dosage 10^-4.25 mole/1, 56.23 µM",10%
same,spasm reduction,"[5]; dosage 10^-4.5 mole/1, 31.62 µM",5%
